According to BindingDB's records for doi:10.1016/j.bioorg.2015.11.006 (Universiti Teknologi Mara (Uitm), 2016):

Molecular target: Alpha-glucosidase MAL12 (Saccharomyces cerevisiae (strain ATCC 204508 / S288c), UniProt P53341)
Experiment: Baker's Yeast α-Glucosidase Inhibition Assay
Conditions: pH 6.8
Experimental: The enzyme inhibition was evaluated according to the method previously reported by Rahim et al. [25] with slight modification. Various concentration of test compounds (10 µL) were dissolved in DMSO (ranging from 200 to 6.25 µg/mL) and premixed with 95 µL of 50 mM phosphate buffer (pH 6.8). Then, 25 µL of enzyme(0.0625 U/mL) in phosphate buffer saline was added into each well and the plate was incubated at 37 °C for 10 min. Afterward, 25 µl of PNPG in phosphate buffer saline (5 mM) were added and pre-read of the plate was taken by using a microplate reader (Spectrostar Nano BMG Labtech, Germany). The reaction mixture was then incubated at 37 °C for 30 min and change in absorbance at 405 nm was monitored up to 30 min. For negative control, the test samples were replaced with 10 µL of DMSO and acarbose was used as positive control

Sequence of Alpha-glucosidase MAL12 (P53341 whole entry): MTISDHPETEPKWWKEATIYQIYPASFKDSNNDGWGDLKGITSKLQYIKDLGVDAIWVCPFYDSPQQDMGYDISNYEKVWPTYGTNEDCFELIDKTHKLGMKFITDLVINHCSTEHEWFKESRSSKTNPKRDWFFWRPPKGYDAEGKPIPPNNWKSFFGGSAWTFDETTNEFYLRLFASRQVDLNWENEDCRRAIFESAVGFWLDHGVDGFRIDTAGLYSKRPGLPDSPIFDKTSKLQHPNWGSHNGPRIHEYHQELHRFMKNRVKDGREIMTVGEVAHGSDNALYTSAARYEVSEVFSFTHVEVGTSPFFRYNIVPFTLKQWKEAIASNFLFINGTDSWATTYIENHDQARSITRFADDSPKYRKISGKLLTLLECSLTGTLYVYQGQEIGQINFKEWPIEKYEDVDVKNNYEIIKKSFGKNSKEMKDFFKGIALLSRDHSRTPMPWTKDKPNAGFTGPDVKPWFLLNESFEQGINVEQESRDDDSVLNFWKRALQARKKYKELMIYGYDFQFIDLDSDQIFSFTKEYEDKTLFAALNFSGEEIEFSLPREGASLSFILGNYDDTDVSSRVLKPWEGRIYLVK

SMILES | IC50 [µM]
Cc1cc2nc(-c3ccc(C(=O)N/N=C/c4ccccc4C)cc3)[nH]c2cc1C [(E)-4-(5,6-dimethyl-1H-benzo[d]imidazol-2-yl)-N'-(2-methylbenzylidene) benzohydrazide (13)] | 24.8
Cc1cc2nc(-c3ccc(C(=O)N/N=C/c4cccc(F)c4)cc3)[nH]c2cc1C [(E)-4-(5,6-dimethyl-1H-benzo[d]imidazol-2-yl)-N'-(3-fluorobenzylidene) benzohydrazide (26)] | 158
COc1ccc(/C=N/NC(=O)c2ccc(-c3nc4cc(C)c(C)cc4[nH]3)cc2)cc1O [(E)-4-(5,6-dimethyl-1H-benzo[d]imidazol-2-yl)-N'-(3-hydroxy-4-methoxybenzylidene) benzohydrazide (9)] | 29
Cc1cc2nc(-c3ccc(C(=O)N/N=C/c4cccc(O)c4)cc3)[nH]c2cc1C [(E)-4-(5,6-dimethyl-1H-benzo[d]imidazol-2-yl)-N'-(3-hydroxybenzylidene) benzohydrazide (2)] | 32.5
Cc1cccc(/C=N/NC(=O)c2ccc(-c3nc4cc(C)c(C)cc4[nH]3)cc2)c1 [(E)-4-(5,6-dimethyl-1H-benzo[d]imidazol-2-yl)-N'-(3-methylbenzylidene) benzohydrazide (14)] | 23.5
Cc1cc2nc(-c3ccc(C(=O)N/N=C/c4ccc(O)cc4)cc3)[nH]c2cc1C [(E)-4-(5,6-dimethyl-1H-benzo[d]imidazol-2-yl)-N'-(4-hydroxybenzylidene) benzohydrazide (1)] | 26
COc1ccc(/C=N/NC(=O)c2ccc(-c3nc4cc(C)c(C)cc4[nH]3)cc2)cc1 [(E)-4-(5,6-dimethyl-1H-benzo[d]imidazol-2-yl)-N'-(4-methoxybenzylidene) benzohydrazide (20)] | 32.6
Cc1cc2nc(-c3ccc(C(=O)N/N=C/c4ccco4)cc3)[nH]c2cc1C [(E)-4-(5,6-dimethyl-1H-benzo[d]imidazol-2-yl)-N'-(furan-2-ylmethylene) benzohydrazide (21)] | 32.1
Cc1cc2nc(-c3ccc(C(=O)N/N=C/c4ccccn4)cc3)[nH]c2cc1C [(E)-4-(5,6-dimethyl-1H-benzo[d]imidazol-2-yl)-N'-(pyridin-2-ylmethylene) benzohydrazide (18)] | 25.7
Cc1cc2nc(-c3ccc(C(=O)N/N=C/c4cccnc4)cc3)[nH]c2cc1C [(E)-4-(5,6-dimethyl-1H-benzo[d]imidazol-2-yl)-N'-(pyridin-3-ylmethylene) benzohydrazide (23)] | 46
Cc1cc2nc(-c3ccc(C(=O)N/N=C/c4ccncc4)cc3)[nH]c2cc1C [(E)-4-(5,6-dimethyl-1H-benzo[d]imidazol-2-yl)-N'-(pyridin-4-ylmethylene) benzohydrazide (11)] | 148
COc1ccc(/C=N/NC(=O)c2ccc(-c3nc4cc(C)c(C)cc4[nH]3)cc2)cc1OC [(E)-N'-(3,4-dimethoxybenzylidene)-4-(5,6-dimethyl-1H-benzo[d]imidazol-2-yl)benzohydrazide (3)] | 180
Cc1cc2nc(-c3ccc(C(=O)N/N=C/c4ccc(O)c(Br)c4)cc3)[nH]c2cc1C [(E)-N'-(3-bromo-4-hydroxybenzylidene)-4-(5,6-dimethyl-1H-benzo[d]imidazol-2-yl)benzohydrazide (17)] | 34.5
Cc1cc2nc(-c3ccc(C(=O)N/N=C\c4ccc(Cl)cc4)cc3)[nH]c2cc1C [(Z)-N'-(4-chlorobenzylidene)-4-(5,6-dimethyl-1H-benzo[d]imidazol-2-yl)benzohydrazide (22)] | 24.8

Compounds with a lower IC50, results first:

IC50 [µM] | SMILES
8.44 | COc1ccc(/C=N/NC(=O)c2ccc(-c3nc4cc(C)c(C)cc4[nH]3)cc2)c(O)c1 [(E)-4-(5,6-dimethyl-1H-benzo[d]imidazol-2-yl)-N'-(2-hydroxy-4-methoxybenzylidene) benzohydrazide (10)]
18.2 | Cc1cc2nc(-c3ccc(C(=O)N/N=C/c4ccccc4O)cc3)[nH]c2cc1C [(E)-4-(5,6-dimethyl-1H-benzo[d]imidazol-2-yl)-N'-(2-hydroxybenzylidene) benzohydrazide (15)]
8.4 | Cc1cc2nc(-c3ccc(C(=O)N/N=C/c4cc(O)c(O)c(O)c4)cc3)[nH]c2cc1C [(E)-4-(5,6-dimethyl-1H-benzo[d]imidazol-2-yl)-N'-(3,4,5-trihydroxybenzylidene) benzohydrazide (19)]
15.1 | COc1cccc(/C=N/NC(=O)c2ccc(-c3nc4cc(C)c(C)cc4[nH]3)cc2)c1 [(E)-4-(5,6-dimethyl-1H-benzo[d]imidazol-2-yl)-N'-(3-methoxybenzylidene) benzohydrazide (24)]
18.3 | Cc1ccc(/C=N/NC(=O)c2ccc(-c3nc4cc(C)c(C)cc4[nH]3)cc2)cc1 [(E)-4-(5,6-dimethyl-1H-benzo[d]imidazol-2-yl)-N'-(4-methylbenzylidene) benzohydrazide (16)]
19.3 | Cc1cc2nc(-c3ccc(C(=O)N/N=C/c4ccc([N+](=O)[O-])cc4)cc3)[nH]c2cc1C [(E)-4-(5,6-dimethyl-1H-benzo[d]imidazol-2-yl)-N'-(4-nitrobenzylidene) benzohydrazide (25)]
8.44 | COc1ccc(O)c(/C=N/NC(=O)c2ccc(-c3nc4cc(C)c(C)cc4[nH]3)cc2)c1 [(E)-4-(5,6-dimethyl-1H-benzo[d]imidazol-2-yl)-N'-(pyridin-4-ylmethylene) benzohydrazide (12)]
9.99 | Cc1cc2nc(-c3ccc(C(=O)N/N=C/c4cccc(O)c4O)cc3)[nH]c2cc1C [(E)-N'-(2,3-dihydroxybenzylidene)-4-(5,6-dimethyl-1H-benzo[d]imidazol-2-yl)benzohydrazide (5)]
8.74 | Cc1cc2nc(-c3ccc(C(=O)N/N=C/c4ccc(O)cc4O)cc3)[nH]c2cc1C [(E)-N'-(2,4-dihydroxybenzylidene)-4-(5,6-dimethyl-1H-benzo[d]imidazol-2-yl) benzohydrazide (6)]
8.74 | Cc1cc2nc(-c3ccc(C(=O)N/N=C/c4cc(O)ccc4O)cc3)[nH]c2cc1C [(E)-N'-(2,5-dihydroxybenzylidene)-4-(5,6-dimethyl-1H-benzo[d]imidazol-2-yl) benzohydrazide (4)]
12.5 | Cc1cc2nc(-c3ccc(C(=O)N/N=C/c4ccc(O)c(O)c4)cc3)[nH]c2cc1C [(E)-N'-(3,4-dihydroxybenzylidene)-4-(5,6-dimethyl-1H-benzo[d]imidazol-2-yl) benzohydrazide (7)]
22.4 | Cc1cc2nc(-c3ccc(C(=O)N/N=C/c4cccc(Cl)c4)cc3)[nH]c2cc1C [(E)-N'-(3-chlorobenzylidene)-4-(5,6-dimethyl-1H-benzo[d]imidazol-2-yl) benzohydrazide (8)]
